Experimental data: US6020344A (priority 1998, dated 2000)
Entries after “also recorded” stand apart in the source; their conditions may differ. Where two headings read alike, the source gives them in different places.

Assays:
[1] = test system: CC(=O)NC1C(O)CC(Oc2ccc([N+](=O)[O-])cc2)(C(=O)O)OC1C(O)C(O)CO; test: purified protein, by the assay type; settings: pH 5.5; 30.0 °C
[2] = biological target: T1, Salmonella typhimurium sialidase (Salmonella typhimurium, UniProt P29768); settings: for competitive inhibitor potency (in words): summary statement
T1 sequence (P29768 whole entry): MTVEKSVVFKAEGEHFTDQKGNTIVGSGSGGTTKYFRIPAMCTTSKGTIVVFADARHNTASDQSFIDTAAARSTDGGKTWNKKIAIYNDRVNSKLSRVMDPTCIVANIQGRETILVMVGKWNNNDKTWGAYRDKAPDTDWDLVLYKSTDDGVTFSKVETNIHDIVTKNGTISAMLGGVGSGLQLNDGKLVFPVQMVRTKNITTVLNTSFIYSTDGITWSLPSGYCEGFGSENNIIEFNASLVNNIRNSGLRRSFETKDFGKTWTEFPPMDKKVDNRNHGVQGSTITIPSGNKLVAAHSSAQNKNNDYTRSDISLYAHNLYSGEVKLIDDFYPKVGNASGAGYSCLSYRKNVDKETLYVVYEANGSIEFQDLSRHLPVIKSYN

bacterial sialidases = assay type: biochemical; settings: read-out: Ki (range)
[3] = biological target: T1, Salmonella typhimurium sialidase; test: biochemical
[4] = biological target: T2, Vibrio cholerae sialidase (Vibrio cholerae serotype O1, UniProt P0C6E9)
T2 sequence (P0C6E9 25-781): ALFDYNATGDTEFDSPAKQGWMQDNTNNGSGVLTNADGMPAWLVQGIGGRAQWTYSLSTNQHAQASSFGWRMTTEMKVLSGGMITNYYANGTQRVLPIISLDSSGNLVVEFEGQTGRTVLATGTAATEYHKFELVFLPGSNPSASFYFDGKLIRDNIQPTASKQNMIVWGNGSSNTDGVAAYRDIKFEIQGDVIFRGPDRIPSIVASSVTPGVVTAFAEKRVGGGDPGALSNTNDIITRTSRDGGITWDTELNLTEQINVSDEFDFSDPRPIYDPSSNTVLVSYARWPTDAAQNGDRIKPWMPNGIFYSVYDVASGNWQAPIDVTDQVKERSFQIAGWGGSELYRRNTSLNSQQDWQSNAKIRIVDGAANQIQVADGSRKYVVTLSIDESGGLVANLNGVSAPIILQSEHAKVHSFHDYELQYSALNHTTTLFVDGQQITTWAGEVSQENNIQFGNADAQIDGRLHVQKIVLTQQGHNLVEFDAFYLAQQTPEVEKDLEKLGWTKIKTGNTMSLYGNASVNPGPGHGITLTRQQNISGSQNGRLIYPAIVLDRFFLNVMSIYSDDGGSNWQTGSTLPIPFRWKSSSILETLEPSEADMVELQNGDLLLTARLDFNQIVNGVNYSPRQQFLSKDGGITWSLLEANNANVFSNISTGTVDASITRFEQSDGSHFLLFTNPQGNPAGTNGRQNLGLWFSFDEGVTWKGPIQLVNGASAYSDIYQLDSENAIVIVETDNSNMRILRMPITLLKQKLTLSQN

[5] = biological target: T2, Vibrio cholerae sialidase; test: biochemical
[6] = test system: Clostridium perfringens sialidase; assay type: biochemical; settings: for binding/inhibition of 5a compared with 5b (in words): 5a vs 5b; for affinity relative to substrate (in words): Ki vs substrate Km; for Ki: Table 1, competitive inhibition fit; for competitive inhibitor potency (in words): summary statement
[7] = carboxyl group adjacent to the anomeric carbon; cited from earlier work
influenza neuraminidase = settings: literature; FANA compared with DANA; cited from earlier work

## Vibrio cholerae sialidase (Vibrio cholerae O1 biovar El Tor str. N16961)
[1]
  Km: 2700 µM

## CC(=O)N[C@H]1[C@H](O)CN(C(Cc2ccccc2)C(=O)O)C[C@@H]1O (relative stereo) [±5b, trans-trans-5-N-(1'-carboxy-benzyl-ethyl)-3,5-dihydroxy-4-acetamidopiperidine]
[2]; 5b vs 5a
  binding of ±5b relative to 5a: ~5 times more tightly
  binding of ±5b relative to 5a (in words): bound tighter than 5a
[2]; FIG. 4
  type of inhibition (double reciprocal plot): competitive
[2]; Ki vs substrate Km
  binding relative to the p-nitrophenyl glycoside substrate: approximately 2 × tighter
[2]
  competitive inhibitor potency (in words): sub-millimolar competitive inhibitors
Bacterial sialidases
  Ki: 100 to 1000 µM
[3]
  Ki: 560 ± 30 µM
[4]
  binding / inhibition (in words): modest inhibitor
[4]; 5b vs 5a
  binding of ±5b relative to 5a (in words): bound tighter than 5a
[4]; Ki vs substrate Km
  binding relative to the p-nitrophenyl glycoside substrate: approximately 2 × tighter
[4]; listed as 5b
  binding / inhibition (in words): bind weakly
[5]
  Ki: 1500 ± 200 µM
[6]
  binding/inhibition of 5a compared with 5b (in words): inhibited to the same extent
  affinity relative to substrate (in words): slightly lower affinity than substrate
  competitive inhibitor potency (in words): sub-millimolar competitive inhibitors
[6]; listed as 5b
  binding/inhibition of 5a compared with 5b (in words): no net energetic advantage over binding 5a exists; also recorded: no preference
[6]; pH 5.5, 30° C.
  Ki: 500 ± 70 µM

## CC(=O)N[C@H]1[C@H](O)CN(CC(=O)O)C[C@@H]1O [Compound 5a]
[2]
  competitive inhibitor potency (in words): sub-millimolar competitive inhibitors
Bacterial sialidases
  Ki: 100 to 1000 µM
[3]
  Ki: 2500 ± 400 µM
[4]
  binding / inhibition (in words): bind weakly
[4]; up to 2 mM 5a, pH 5.5, 30° C.
  inhibition at concentrations up to / below 2 mM: No inhibition; also recorded: did not show inhibition
[5]
  Ki: > 2000 µM
[6]
  binding/inhibition of 5a compared with 5b (in words): inhibited to the same extent; also recorded: no preference
  affinity relative to substrate (in words): slightly lower affinity than substrate
  competitive inhibitor potency (in words): sub-millimolar competitive inhibitors
[6]; pH 5.5, 30° C.
  Ki: 400 ± 100 µM

## Salmonella typhimurium sialidase (Salmonella enterica subsp. enterica serovar Typhimurium str. LT2)
[1]
  Km: 1200 µM

## CC(=O)NC1C(O)CC(Oc2ccc([N+](=O)[O-])cc2)(C(=O)O)OC1C(O)C(O)CO [2-O-(p-nitrophenyl)-a-D-N-acetylneuraminic acid, reference compound]
[6]; pH 5.5, 30° C.
  Km: 280 ± 30 µM

## CC(=O)N[C@H]1[C@H]([C@H](O)[C@H](O)CO)OC(O)(C(=O)O)C[C@@H]1O (stereo partly drawn) [N-acetyl neuraminic acid]
[7]
  pKa: ~ 2.8

## O=C(O)C1=C[C@H](O)[C@@H](NC(=O)C(F)(F)F)[C@H]([C@H](O)[C@H](O)CO)O1 [FANA, 2-deoxy-2,3-dehydro-N-(trifluoroacetyl) neuraminic acid]
Influenza neuraminidase
  in vitro inhibition of influenza neuraminidase (in words): greater in vitro activity

## CC(=O)N[C@H]1[C@H]([C@H](O)[C@H](O)CO)OC(C(=O)O)=C[C@@H]1O [DANA, 2-deoxy-2,3-dehydro-N-acetylneuraminic acid]
Influenza neuraminidase
  in vitro inhibition of influenza neuraminidase (in words): effective in vitro inhibitor of NA; also recorded: among the most potent thus far described
